Measured values: US12110282B2, “Thiobenzopyrans and their use in preparation of drugs for treatment of rheumatoid arthritis” (HC SYNTHETIC PHARMACEUTICAL CO., LTD., priority 2020, dated 2024)
Structures can show the parent of a compound that is named as a salt.

Legend:
[1] = tested on: adjuvant arthritis (AA) of rats; assay: anti-arthritic activity in the animal model of adjuvant arthritis (AA) of rats, foot swelling by drainage method; type: in vivo; design: key to The average swelling degree before administration (X ± s) / Average swelling degree after administration (X ± s): (toe volume after − before inflammation)/volume before; fraction; settings: rat adjuvant arthritis; for The average swelling degree before administration (X ± s): foot swelling degree before administration (baseline); for The average swelling degree before administration (X ± s) / Average swelling degree after administration (X ± s): n=10; for Average swelling degree after administration (X ± s): gavage 50 μg/dose/day for consecutive 5 days
Method: The study on the anti-arthritic activity of the compounds of the present disclosure was conducted based on the animal model of adjuvant arthritis (AA) of rats and on the establishment of adjuvant arthritis of rats. The rats were divided into 14 groups, with 10 rats in each group, and the rats were administered by gavage the compound of the present disclosure, a blank control, and a positive control substance of Iguratimod at a dose of 50 μg/dose/day for consecutive 5 days. A drainage method was used to determine the degree of foot swelling in rats of each group before and after administration, and the degree of foot swelling in rats before and after administration was calculated to determine whether the drug was effective.
Foot swelling degree X=(volume of the toe after inflammation−volume of toe before inflammation)/volume of the toe before inflammation×100%.

[2] = tested on: healthy rats; assay: content of aminotransferase in the serum of healthy rats after oral administration for 15 days; type: in vivo; settings: for ALT / AST: serum of healthy rats, oral administration for 15 days, n=10
Method: Elevated aminotransferase is a common side effect of Iguratimod. To investigate whether the compounds of the present disclosure have effects on aminotransferase, healthy rats were administered orally the compound of the present disclosure and Iguratimod for 15 days, respectively, and then the content of aminotransferase in the serum of rats was determined.

Compound	The average swelling degree before administration (X ± s) [1]	Average swelling degree after administration (X ± s) [1]	ALT [2] [U/L]	AST [2] [U/L]	side effects (aminotransferase elevation) compared with Iguratimod ([2]; healthy rats, oral, conclusion in words)	anti-inflammatory effect compared with Iguratimod ([1]; conclusion in words)
CS(=O)(=O)Nc1cc2scc(NC=O)c(=O)c2cc1Oc1ccccc1 [Compound 1, 3-formamido-7-methylsulfonamido-6-phe noxy-4H-I-thiobenzopyran-4-one]	0.453 ± 0.0290	0.020 ± 0.0335	125 ± 10.24	75 ± 8.22	–	–
CS(=O)(=O)Nc1cc2scc(NC=O)c(=O)c2cc1S(=O)(=O)c1ccccc1 [Compound 4 sodium salt]	0.435 ± 0.0290	0.018 ± 0.0303	130 ± 9.15	83 ± 8.09	–	–
CS(=O)(=O)Nc1cc2occ(NC=O)c(=O)c2cc1Oc1ccccc1 [Iguratimod, 3-formamido-7-methylsulfonamido-6-phenoxy-4H-1-benzopyran-4-one, reference compound]	0.445 ± 0.0321	0.029 ± 0.0389	173 ± 9.86	145 ± 10.98	–	–
CS(=O)(=O)Nc1cc2scc(NC=O)c(=O)c2cc1Sc1ccccc1 [Compound 2, 3-formamido-7-methylsulfonamido-6-phenylthio-4H-1-thiobenzopyran-4-one]	0.430 ± 0.0312	0.019 ± 0.0315	108 ± 9.43	80 ± 9.28	further weaker side effects	–
CS(=O)(=O)Nc1cc2scc(NC=O)c(=O)c2cc1Oc1ccccc1 [Compound 1 sodium salt]	0.450 ± 0.0284	0.023 ± 0.0306	129 ± 10.18	76 ± 9.22	–	–
CS(=O)(=O)Nc1cc2scc(NC=O)c(=O)c2cc1[S+]([O-])c1ccccc1 (stereo not drawn) [Compound 3 potassium salt]	0.454 ± 0.0277	0.023 ± 0.0330	141 ± 7.89	89 ± 8.91	–	–
CS(=O)(=O)Nc1cc2scc(NC=O)c(=O)c2cc1[S+]([O-])c1ccccc1 (stereo not drawn) [Compound 3 sodium salt]	0.438 ± 0.0229	0.022 ± 0.0333	140 ± 8.83	87 ± 9.06	–	–
CS(=O)(=O)Nc1cc2scc(NC=O)c(=O)c2cc1Sc1ccccc1 [Compound 2 potassium salt]	0.453 ± 0.0290	0.021 ± 0.0335	109 ± 9.11	77 ± 9.02	–	–
CS(=O)(=O)Nc1cc2scc(NC=O)c(=O)c2cc1S(=O)(=O)c1ccccc1 [Compound 4 potassium salt]	0.418 ± 0.0198	0.019 ± 0.0274	132 ± 8.79	85 ± 6.87	–	–
CS(=O)(=O)Nc1cc2scc(NC=O)c(=O)c2cc1Sc1ccccc1 [Compound 2 sodium salt]	0.448 ± 0.0291	0.020 ± 0.0325	104 ± 9.05	76 ± 9.56	–	–
CS(=O)(=O)Nc1cc2scc(NC=O)c(=O)c2cc1[S+]([O-])c1ccccc1 (stereo not drawn) [Compound 3]	0.449 ± 0.0305	0.025 ± 0.0339	143 ± 7.83	90 ± 8.76	–	–
CS(=O)(=O)Nc1cc2scc(NC=O)c(=O)c2cc1S(=O)(=O)c1ccccc1 [Compound 4, N-(7-(methylsulfonamido)-4-oxo-6-(phenylsulfonyl)-4H-thiobenzopyran-3-yl)carboxamide]	0.425 ± 0.0247	0.017 ± 0.0305	133 ± 9.04	79 ± 9.82	–	better anti-inflammatory effect
CS(=O)(=O)Nc1cc2scc(NC=O)c(=O)c2cc1Oc1ccccc1 [Compound 1 potassium salt]	0.455 ± 0.0279	0.020 ± 0.0323	126 ± 10.05	78 ± 8.74	–	–
